Peptide text beside a SMILES is read from it. * marks the point of attachment. Cbz = O=C(OCc1ccccc1)*
Experiments:
p-METTL3 (S43) = p-METTL3 (S43) in A375 cells, IP with METTL3 antibody followed by immunoblot; format: cell-based, human; conditions: 1 h, 1 μM dabrafenib, 1 μM PLX-4720, 10 μM PD0325901, 0.1 μM trametinib
Source text: FIGS. 10A-10G: ERK Interacts and Phosphorylates METTL3 and WTAP. (A-C) Mass spectrometry detected S43, S50 and S525 phosphorylation in METTL3 in 293T cells co-transfected with B-RAF V600E. (D) Characterization of anti-p-METTL3 (S43) antibodies of 293T cells transfected as indicated with MEK S218D/S222D, HER2 V659E, B-RAF V600E and WT or non-phosphorylatable alanine mutant (3A) METTL3. (E) The METTL3 S43 phosphorylation was identified by in vitro kinase assays, in which purified METTL3-METTL14 were incubated with activated ERK2. (F) A375 cells were treated with 1 μM dabrafenib, 1 μM PLX-4720, 10 μM PD0325901, 0.1 μM tramentib for 1 h. Cell lysates were subjected to IP with METTL3 antibody followed by immunoblot. (G) Phos-tag SDS-PAGE showing the phosphorylation status of WT or non-phosphorylatable alanine mutants of mice WTAP in 293T cells co-transfected with B-RAF. 2A, T298A/S341A.
To investigate METTL3 phosphorylation by ERK inside cells, a polyclonal antibody was generated that targets S43-phosphorylated METTL3. This antibody recognizes S43-phosphorylated METTL3 but not a mutant form of METTL3, METTL3 3A, with all three phosphorylation serine sites replaced with alanine (FIG. 10D). This P-S43 antibody was then used as a tool to monitor METTL3 phosphorylation. […] Furthermore, the p-METTL3 (S43) in A375 cells, a human melanoma cell line with constitutively active ERK due to a B-RAF V600E mutation, was abrogated by treatments with B-RAF inhibitors (dabrafenib and PLX4720) or MEK inhibitors (PD0325901 and trametinib) (FIG. 10F), supporting that S43 phosphorylation on METTL3 is installed through the ERK pathway.
Immunoprecipitation, immunoblotting, and in vitro kinase assay. Immunoprecipitation (IP) and immunoblotting (IB) were performed as previously described (Sun et al., 2016). […] Primary antibodies were detected by HRP-linked secondary antibodies (Cell Signaling) together with SuperSignal West Pico Plus chemiluminescent substrate (Thermo Scientific) and imaged in a FluorChem R system (ProteinSimple).

A375 cells = test: Cell viability of control or METTL3 knockdown A375 cells after treatment with DNA damage repair modulators; format: cell-based, human; conditions: METTL3 knockdown versus control
Method: FIGS. 24A-24E: The synergistic damage effects of METTL3 knockdown with DNA damage repair modulators or inhibitors of specific DNA repair pathways in cancer cells. […] Error bars indicate mean±s.e.m. P values were determined by two-tailed t-test. (E) Analysis of dsDNA break in the control or METTL3 knockdown colon cancer cells. TUNEL assay was performed.

METTL3 in SKBR3 cells = test: Immunofluorescence analysis of METTL3 in SKBR3 cells; format: cell-based; conditions: 1 μM, 8 hr
Method: (§1) FIGS. 6A-6H: Phosphorylation of the m^6A Methyltransferase Complex May Affect Tumorigenesis. (A) Lysates of A375 stable transfectants harvested at different time points after treatment with cycloheximide (CHX) 10 μg/ml were analyzed by immunoblot. (B) LC-MS/MS quantification of the m^6A/A ratio in mRNA of A375 stable transfectants. (C) After 8 h treatment with 10 μM PD0325901 or 0.1 μM tramentib, cell lysates from A375 cells were analyzed by immunoblot. (D) LC-MS/MS quantification of the m^6A/A ratio in mRNA of A375 cells treated with 10 μM PD0325901 or 0.1 μM tramentib for 48 h. (E) After 8hr treatment with 10 μM EOAI3402143 (EOAI) or 30 μM vialinin A , cell lysates from A375 cells were analyzed by immunoblot. (F) A375 stable transfectants as indicated were treated with 3 μM EOAI3402143 (EOAI) or 10 μM vialinin A before measuring cell viability by SRB assay. Data are presented as relative to the R-WT cells without drug treatment (n=3 per group, data represent mean±SEM). (G) Immunofluorescence analysis of METTL3 (green) in SKBR3 cells treated with 1 μM tucatinib and 1 μM lapatinib for 8 hr. DAPI (blue) was used to mark the nucleus. (H) LC-MS/MS quantification of the m^6A/A ratio in mRNA of SKBR3 and BT474 cells treated with 1 μM tucatinib and 1 μM lapatinib for 48 h. […]
Confocal Microscopy. […] Confocal fluorescence images were captured using Olympus FV1000 confocal spectral microscope.

[1] = system: mRNA m^6A in SKBR3 and BT474 cells; test: LC-MS/MS quantification of the m^6A/A ratio in mRNA of SKBR3 and BT474 cells; format: cell-based; conditions: 1 μM, 48 h
Method: as §1, with “(F) A375 stable transfectants as indicated were treated with 3 μM EOAI3402143 (EOAI) or 10 μM vialinin A before measuring cell viability by SRB assay. Data are presented as relative to the R-WT cells without drug treatment (n=3 per group, data represent mean±SEM). (G) Immunofluorescence analysis of METTL3 (green) in SKBR3 cells treated with 1 μM tucatinib and 1 μM lapatinib for 8 hr. DAPI (blue) was used to mark the nucleus.” left out
LC-MS/MS quantification of m^6A in poly(A) RNA. mRNA was extracted from the total RNA using 2 rounds of the Dynabeads mRNA purification kit. […] The nucleosides were quantified by using the nucleoside-to-base ion mass transitions of 282 to 150 (m^6A) and 268 to 136 (A). Quantification was carried out by comparison with a standard curve obtained from pure nucleoside. The ratio of m^6A to A was calculated based on the calibrated concentrations (Liu et al., 2018).

ubiquitination of METTL3 = test: Ubiquitination of METTL3 in A375 cells transfected with HA-ubiquitin (IP anti-METTL3, immunoblot anti-HA); format: cell-based, human; conditions: 10 μM MG-132 and 10 μM EOAI3402143 or 30 μM vialinin A for 8 h
Method: (§2) FIGS. 11A-11G: USP5 is Required for ERK-Mediated METTL3 Stabilization. (A) A375 cells transfected with HA-ubiquitin (ub) were treated with 10 μM MG-132 and MEK inhibitor PD0325901 for 8 h. The ubiquitination of METTL3 was detected by IP with anti-METTL3 and immunoblot with anti-HA. (B) After 8 h treatment with 10 μM PD0325901 with or without 10 μM MG-132, cell lysates from A375 cells were analyzed by immunoblot. (C) A375 cells were treated with various concentrations of PD0325901 for 1 h. Cell lysates were subjected to IP with METTL3 antibody followed by immunoblot. (D) 293T cells transfected as indicated were subjected to IP/immunoblot analysis. (E) Immunofluorescence analysis of myc-METTL3 (green) in mESC stable transfectants. DAPI (blue) was used to mark the nucleus. (F) Lysates of 293T cells transfected as indicated were subjected to IP with anti-Flag antibody followed by immunoblot. (G) Immunofluorescence analysis of 293T cells co-transfected with myc-METTL3 (green), Flag-USP5 (red) with or without constitutively active B-RAF.
FIGS. 14A-14I: Phosphorylation of the m^6A Methyltransferase Complex May Affect Tumorigenesis. […] (B) LC-MS/MS quantification of the m^6A/A ratio in mRNA of melanoma cell lines. (C) After 8 h treatment with 10 μM PD0325901 or 0.1 μM tramentib, cell lysates from HCT-116 cells were analyzed by immunoblot. […] The ubiquitination of METTL3 was detected by IP with anti-METTL3 and immunoblot with anti-HA. (F) After 8 hr treatment with 10 μM EOAI3402143 (EOAI) or 30 μM vialinin A, cell lysates from HCT-116 cells were analyzed by immunoblot. […] (I) LC-MS/MS quantification of the m^6A/A ratio in mRNA of breast cancer cell lines.
Immunoprecipitation, immunoblotting, and in vitro kinase assay. […] Primary antibodies were detected by HRP-linked secondary antibodies (Cell Signaling) together with SuperSignal West Pico Plus chemiluminescent substrate (Thermo Scientific) and imaged in a FluorChem R system (ProteinSimple).

[2] = system: METTL3 / m^6A methyltransferase complex in A375 cells; test: Immunoblot of METTL3 / m^6A methyltransferase complex protein in A375 cell lysates; format: cell-based, human
Method: FIGS. 6A-6H: Phosphorylation of the m^6A Methyltransferase Complex May Affect Tumorigenesis. (A) Lysates of A375 stable transfectants harvested at different time points after treatment with cycloheximide (CHX) 10 μg/ml were analyzed by immunoblot. (B) LC-MS/MS quantification of the m^6A/A ratio in mRNA of A375 stable transfectants. (C) After 8 h treatment with 10 μM PD0325901 or 0.1 μM tramentib, cell lysates from A375 cells were analyzed by immunoblot. (D) LC-MS/MS quantification of the m^6A/A ratio in mRNA of A375 cells treated with 10 μM PD0325901 or 0.1 μM tramentib for 48 h. (E) After 8hr treatment with 10 μM EOAI3402143 (EOAI) or 30 μM vialinin A , cell lysates from A375 cells were analyzed by immunoblot. (F) A375 stable transfectants as indicated were treated with 3 μM EOAI3402143 (EOAI) or 10 μM vialinin A before measuring cell viability by SRB assay. Data are presented as relative to the R-WT cells without drug treatment (n=3 per group, data represent mean±SEM). (G) Immunofluorescence analysis of METTL3 (green) in SKBR3 cells treated with 1 μM tucatinib and 1 μM lapatinib for 8 hr. DAPI (blue) was used to mark the nucleus. (H) LC-MS/MS quantification of the m^6A/A ratio in mRNA of SKBR3 and BT474 cells treated with 1 μM tucatinib and 1 μM lapatinib for 48 h. (See also FIG. 14.)
as §2
Immunoprecipitation, immunoblotting, and in vitro kinase assay. Immunoprecipitation (IP) and immunoblotting (IB) were performed as previously described (Sun et al., 2016). In brief, protein samples were isolated from respective cells by lysis in RIPA buffer (1% Triton X-100, 150 mM NaCl, 20 mM Na2PO4, pH 7.4) containing Halt Protease and Phosphatase Inhibitor Cocktail (Thermo Scientific). Subsequently, a BCA assay (Thermo Scientific) was used to determine the protein concentrations. For IP, indicated antibody and protein A/G magnetic beads (Thermo Scientific) were incubated with lysate at 4° C. overnight followed by washing and elution with sample buffer. Equal amounts of protein were separated by SDS-PAGE followed by wet transfer to PVDF membranes. Blots were blocked with 5% non-fat milk or BSA and incubated with respective primary antibody at 4° C. overnight. Primary antibodies were detected by HRP-linked secondary antibodies (Cell Signaling) together with SuperSignal West Pico Plus chemiluminescent substrate (Thermo Scientific) and imaged in a FluorChem R system (ProteinSimple).

## CCCS(=O)(=O)Nc1ccc(F)c(C(=O)c2c[nH]c3ncc(Cl)cc23)c1F [PLX4720]
p-METTL3 (S43)
  p-METTL3 (S43): abrogated

## CC(C)(C)c1nc(-c2cccc(NS(=O)(=O)c3c(F)cccc3F)c2F)c(-c2ccnc(N)n2)s1 [dabrafenib]
p-METTL3 (S43)
  p-METTL3 (S43): abrogated

## O=c1[nH]cc(F)c(=O)[nH]1 [5-FU]
A375 cells
  effect on cell viability of DNA damage agent with METTL3 knockdown: synergistic effects

## C[C@]1(c2nc3c(C(N)=O)cccc3[nH]2)CCCN1 [veliparib]
A375 cells
  cell death of METTL3 knockdown cells versus controls after DNA damage repair inhibitor: more severe cell death

## Cc1cc(Nc2ncnc3ccc(NC4=NC(C)(C)CO4)cc23)ccc1Oc1ccn2ncnc2c1 [tucatinib]
METTL3 in SKBR3 cells
  METTL3 protein level: reduce
[1]
  cellular mRNA m^6A methylation (m^6A/A ratio): reduce

## O=C(Cc1ccccc1)Oc1c(OC(=O)Cc2ccccc2)c(-c2ccc(O)cc2)c(O)c(O)c1-c1ccc(O)cc1 [vialinin]
Ubiquitination of METTL3
  ubiquitination of METTL3: increased
[2]; A375 cells (also HCT-116, FIG. 14F), 8 hr, 10 μM EOAI3402143 or 30 μM vialinin A
  METTL3 protein level: decreased

## C[C@@H]1COCCN1c1cc(C2([S@](C)(=N)=O)CC2)nc(-c2cc[nH]c3nccc2-3)n1 [AZD6738, ceralasertib]
A375 cells
  cell death of METTL3 knockdown cells versus controls after DNA damage repair inhibitor: more severe cell death

## CS(=O)(=O)CCNCc1ccc(-c2ccc3ncnc(Nc4ccc(OCc5cccc(F)c5)c(Cl)c4)c3c2)o1 [lapatinib]
METTL3 in SKBR3 cells
  METTL3 protein level: reduce
[1]
  cellular mRNA m^6A methylation (m^6A/A ratio): reduce

## Bleomycin
A375 cells
  effect on cell viability of DNA damage agent with METTL3 knockdown: synergistic effects

## CC(C)C[C@@H](C=O)NC(=O)[C@H](CC(C)C)NC(=O)[C@H](CC(C)C)NC(=O)OCc1ccccc1 [MG132] (Cbz-Leu-Leu-Leu-aldehyde)
[2]; A375 cells, 10 μM PD0325901 with 10 μM MG-132, 8 h
  PD0325901-induced degradation of METTL3 on addition of proteasome inhibitor: restored

Source: patent publication US20230123585A1, “COMPOSITIONS AND METHODS FOR TREATING OR PREVENTING CANCER USING DEUBIQUITINASE INHIBITORS” (The University of Chicago, priority 2020, published 2023)
